According to the supplement of paper PMC10331698:
± gives the standard deviation of the averaged measurements.

Legend:
Test in all cases: level (log10 ratio to DMSO vehicle control); higher = higher biomarker level / cell amount than vehicle control
[1] = compound: O=P(O)(O)CCC(F)(F)C(F)(F)C(F)(F)C(F)(F)C(F)(F)C(F)(F)F [2-(Perfluorohexyl)ethylphosphonic acid]; details: in DMSO
Protocol: (§1)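 BioMAP Diversity Plus panel of 12 human primary cell co-culture systems (3C, 4H, LPS, SAg, BT, BF4T, BE3C, CASM3C, HDF3CGF, KF3CT, MyoF, Mphg). Compounds were added 1 h before stimulation and left for 24 h (MyoF 48 h; BT 72 h for soluble read-outs or 6 d for IgG). Biomarkers were read by ELISA, cytotoxicity by SRB, PBMC viability and proliferation by Alamar Blue. Each well value was divided by the mean of 8 DMSO control wells on the same plate and log10 transformed; duplicate blinded samples were tested at 4 concentrations.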

[2] = compound: O=C(O)C(F)(F)C(F)(F)C(F)(F)C(F)(F)C(F)(F)C(F)(F)C(F)(F)F [Ammonium perfluorooctanoate]; details: in DMSO
Protocol: as §1

[3] = compound: C=CC(=O)OCCC(F)(F)C(F)(F)C(F)(F)C(F)(F)C(F)(F)C(F)(F)C(F)(F)C(F)(F)F [8:2 Fluorotelomer acrylate]; details: in DMSO
Protocol: as §1

[4] = compound: C=CC(=O)OCC(F)(F)C(F)(F)C(F)(F)C(F)(F)COC(=O)C=C [1H,1H,6H,6H-Perfluorohexane-1,6-diol diacrylate]; details: 6700 nM; in DMSO
Protocol: as §1

[5] = compound: O=C(CC(=O)C(F)(F)C(F)(F)C(F)(F)F)c1cccs1 [(Perfluorobutyryl)-2-thenoylmethane]; details: in DMSO
Protocol: as §1

[6] = compound: C=CC(=O)OCC(F)(F)C(F)(F)C(F)(F)C(F)(F)C(F)(F)C(F)(F)C(F)(F)C(F)F [1H,1H,9H-Perfluorononyl acrylate]; details: in DMSO
Protocol: as §1

Perfluoropinacol = compound: OC(C(F)(F)F)(C(F)(F)F)C(O)(C(F)(F)F)C(F)(F)F [Perfluoropinacol]; details: in DMSO
Protocol: as §1

[7] = compound: FC(F)(I)C(F)(F)C(F)(F)C(F)(F)C(F)(F)C(F)(F)I [1,6-Diiodoperfluorohexane]; details: 6700 nM; in DMSO
Protocol: as §1

Row | Test System | level (log10) ([1]; 6700 nM) | level (log10) ([1]; 20000 nM) | level (log10) ([1]; 60000 nM) | level (log10) ([2]; 6700 nM) | level (log10) ([2]; 20000 nM) | level (log10) ([2]; 60000 nM) | level (log10) ([3]; 6700 nM) | level (log10) ([3]; 20000 nM) | level (log10) ([3]; 60000 nM) | level (log10) [4] | level (log10) ([5]; 6700 nM) | level (log10) ([5]; 20000 nM) | level (log10) ([6]; 6700 nM) | level (log10) ([6]; 20000 nM) | level (log10) ([6]; 60000 nM) | level (log10) (Perfluoropinacol; 6700 nM) | level (log10) (Perfluoropinacol; 20000 nM) | level (log10) [7]
1 | MyoF:Collagen IV | -0.038 ± 0.0071 | -0.019 ± 0.03 | -0.0405 ± 0.0021 | 0.06 ± 0.0099 | 0.0745 ± 0.0035 | 0.225 ± 0.05 | -0.022 ± 0.0042 | -0.002 ± 0.0057 | -0.0135 ± 0.036 | -0.0715 ± 0.015 | 0.018 ± 0.1 | 0.534 ± 0.07 | 0.02 ± 0.0014 | 0.015 ± 0.024 | 0.0035 ± 0.021 | 0.0385 ± 0.005 | 0.165 ± 0.0028 | 0.063
2 | CASM3C:CD106/VCAM-1 | -0.0105 ± 0.035 | 0.041 ± 0.014 | 0.0775 ± 0.044 | 0.0115 ± 0.015 | -0.0085 ± 0.013 | -0.021 ± 0.025 | -0.033 ± 0.0042 | -0.039 ± 0.037 | 0.004 ± 0.025 | -0.128 ± 0.02 | -0.0225 ± 0.012 | -0.104 ± 0.028 | -0.0885 ± 0.028 | -0.0715 ± 0.07 | -0.12 ± 0.067 | -0.028 ± 0.0042 | -0.0385 ± 0.015 | -0.041
3 | HDF3CGF:MMP-1 | 0.006 ± 0.0071 | -0.0095 ± 0.013 | -0.0045 ± 0.067 | 0.027 ± 0.0085 | -0.002 ± 0.0099 | -0.027 ± 0.062 | 0.0165 ± 0.015 | 0.026 ± 0.011 | 0.0235 ± 0.029 | 0.0075 ± 0.0021 | -0.0195 ± 0.0092 | -0.0935 ± 0.0078 | 0.006 ± 0.0057 | 0.03 ± 0.0057 | 0.0375 ± 0.016 | 0.024 ± 0.023 | 0.017 ± 0.014 | -0.303
4 | MyoF:alpha-SM Actin | 0.037 ± 0.079 | 0.0415 ± 0.067 | 0.0575 ± 0.063 | -0.0145 ± 0.0078 | -0.016 ± 0.0071 | -0.0295 ± 0.04 | 0.0185 ± 0.069 | 0.0145 ± 0.063 | 0.009 ± 0.059 | -0.157 ± 0.012 | -0.0445 ± 0.042 | -0.0865 ± 0.059 | -0.041 ± 0.0014 | -0.075 ± 0.011 | -0.182 ± 0.028 | -0.004 ± 0.0028 | -0.14 ± 0.035 | -0.486
5 | MyoF:Collagen I | -0.0025 ± 0.005 | -0.0045 ± 0.0021 | 0.0085 ± 0.011 | -0.006 ± 0.0014 | 0.0025 ± 0.013 | -0.0125 ± 0.015 | -0.0095 ± 0.005 | -0.0205 ± 0.015 | 0.011 ± 0.0099 | -0.01 ± 0.052 | -0.0255 ± 0.037 | -0.128 ± 0.033 | 0.0005 ± 0.023 | 0.0025 ± 0.00071 | -0.033 ± 0.028 | 0.044 | -0.006 ± 0.0099 | -0.444
6 | HDF3CGF:TIMP-2 | 0.0095 ± 0.042 | 0.0365 ± 0.036 | 0.0305 ± 0.036 | 0.0225 ± 0.015 | 0.0535 ± 0.039 | 0.047 ± 0.05 | -0.014 ± 0.027 | -0.0405 ± 0.0064 | -0.0295 ± 0.0092 | -0.104 ± 0.066 | -0.115 ± 0.013 | -0.408 ± 0.017 | 0.025 ± 0.092 | -0.0355 ± 0.032 | -0.1545 ± 0.00071 | -0.0625 ± 0.005 | -0.126 ± 0.0021 | -0.012
7 | KF3CT:CXCL9/MIG | 0.0055 ± 0.0021 | -0.001 ± 0.0099 | 0.006 ± 0.0071 | 0.005 ± 0.0014 | 0.0095 ± 0.0035 | 0.0115 ± 0.016 | -0.0065 ± 0.0092 | 0.0005 ± 0.0035 | 0.011 ± 0.0085 | -0.034 ± 0.0071 | 0.0085 ± 0.0064 | 0.009 ± 0.0057 | -0.0145 ± 0.0035 | -0.007 ± 0.017 | -0.019 ± 0.0057 | 0.002 ± 0.0028 | -0.004 ± 0.0071 | -0.088
